In ChEMBL document CHEMBL4828703, “Structure-activity relationship study of THZ531 derivatives enables the discovery of BSJ-01-175 as a dual CDK12/13 covalent inhibitor with efficacy in Ewing sarcoma” (Eur J Med Chem, 2021):
Calls of active or inactive are those of the source. No cut-off for these calls is given here.

How the values were obtained:
[1] = target: Cyclin-dependent kinase 13/Cyclin-K (Homo sapiens, UniProt Q14004); assay: Inhibition of human recombinant CDK13/CyclinK assessed as reduction in substrate phosphorylation using His-c-Myc as substrate preincubated with enzyme for 5 mins followed by substrate addition for 15 mins in presence of [gamma 32P-ATP] by radioactive kinase assay; assay type: protein-complex assay
Sequence of Cyclin-dependent kinase 13/Cyclin-K (Q14004 whole entry): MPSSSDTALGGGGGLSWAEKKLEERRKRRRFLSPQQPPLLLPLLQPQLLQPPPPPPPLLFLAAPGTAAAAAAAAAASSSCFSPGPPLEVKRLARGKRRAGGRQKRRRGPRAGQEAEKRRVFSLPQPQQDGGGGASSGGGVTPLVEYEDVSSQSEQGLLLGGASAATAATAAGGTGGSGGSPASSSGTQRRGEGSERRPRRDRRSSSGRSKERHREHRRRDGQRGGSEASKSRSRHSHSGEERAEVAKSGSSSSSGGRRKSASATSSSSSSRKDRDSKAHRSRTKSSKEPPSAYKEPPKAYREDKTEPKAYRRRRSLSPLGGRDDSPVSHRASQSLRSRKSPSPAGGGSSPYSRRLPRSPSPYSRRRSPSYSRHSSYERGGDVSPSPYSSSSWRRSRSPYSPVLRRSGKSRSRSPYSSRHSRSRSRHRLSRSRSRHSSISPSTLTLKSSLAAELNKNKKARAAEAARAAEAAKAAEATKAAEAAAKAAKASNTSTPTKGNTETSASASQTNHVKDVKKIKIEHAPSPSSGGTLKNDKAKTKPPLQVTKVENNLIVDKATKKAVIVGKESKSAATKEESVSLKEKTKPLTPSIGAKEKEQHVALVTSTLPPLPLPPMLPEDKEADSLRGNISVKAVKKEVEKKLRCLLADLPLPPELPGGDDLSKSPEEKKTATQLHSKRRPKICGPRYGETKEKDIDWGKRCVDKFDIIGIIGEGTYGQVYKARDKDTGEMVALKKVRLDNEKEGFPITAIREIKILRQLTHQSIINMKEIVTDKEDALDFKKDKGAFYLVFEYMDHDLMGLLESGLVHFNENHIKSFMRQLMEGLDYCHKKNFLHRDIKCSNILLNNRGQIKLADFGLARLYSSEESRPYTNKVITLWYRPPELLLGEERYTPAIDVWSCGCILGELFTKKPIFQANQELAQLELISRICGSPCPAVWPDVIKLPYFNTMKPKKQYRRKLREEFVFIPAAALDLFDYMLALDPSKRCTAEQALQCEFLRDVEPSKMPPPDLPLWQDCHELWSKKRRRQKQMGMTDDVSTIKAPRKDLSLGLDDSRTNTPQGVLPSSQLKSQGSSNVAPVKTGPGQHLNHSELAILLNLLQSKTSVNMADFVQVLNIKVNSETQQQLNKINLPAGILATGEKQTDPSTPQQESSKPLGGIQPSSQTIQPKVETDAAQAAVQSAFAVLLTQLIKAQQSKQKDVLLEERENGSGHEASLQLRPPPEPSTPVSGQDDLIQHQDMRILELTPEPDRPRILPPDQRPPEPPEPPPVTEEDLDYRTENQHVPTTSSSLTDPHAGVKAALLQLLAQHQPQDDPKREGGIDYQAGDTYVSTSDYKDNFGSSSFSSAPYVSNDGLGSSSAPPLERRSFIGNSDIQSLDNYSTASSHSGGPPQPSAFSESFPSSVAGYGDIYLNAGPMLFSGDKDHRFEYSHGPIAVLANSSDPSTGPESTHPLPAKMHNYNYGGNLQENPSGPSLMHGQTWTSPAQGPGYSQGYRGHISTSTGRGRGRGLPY
Sequence of Cyclin-dependent kinase 13/Cyclin-K (O75909 whole entry, further chain): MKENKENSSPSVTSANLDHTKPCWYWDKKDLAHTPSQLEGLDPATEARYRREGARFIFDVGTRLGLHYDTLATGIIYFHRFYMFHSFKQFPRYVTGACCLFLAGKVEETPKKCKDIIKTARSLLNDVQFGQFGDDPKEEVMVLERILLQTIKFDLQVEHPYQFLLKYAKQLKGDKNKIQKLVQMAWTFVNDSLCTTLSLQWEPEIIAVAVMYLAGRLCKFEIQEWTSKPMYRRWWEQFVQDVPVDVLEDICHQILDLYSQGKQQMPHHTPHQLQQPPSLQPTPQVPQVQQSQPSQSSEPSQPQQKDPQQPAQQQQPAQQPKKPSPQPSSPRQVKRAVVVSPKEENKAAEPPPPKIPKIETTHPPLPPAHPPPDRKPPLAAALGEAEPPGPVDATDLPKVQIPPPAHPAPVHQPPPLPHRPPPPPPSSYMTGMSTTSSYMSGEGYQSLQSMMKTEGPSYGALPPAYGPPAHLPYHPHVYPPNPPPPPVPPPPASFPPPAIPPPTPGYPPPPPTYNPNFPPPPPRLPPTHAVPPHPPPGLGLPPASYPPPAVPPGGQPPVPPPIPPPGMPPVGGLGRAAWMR

[2] = target: Cyclin-dependent kinase 12 (Homo sapiens) (UniProt Q9NYV4); assay: Binding affinity to CDK12 in CDK12/CyclinK complex (unknown origin) assessed as increase in CDK12 mass at 10-fold excess concentration incubated for 1 hr by LC-MS analysis
Sequence of Cyclin-dependent kinase 12 (Homo sapiens) (Q9NYV4 whole entry, looked up): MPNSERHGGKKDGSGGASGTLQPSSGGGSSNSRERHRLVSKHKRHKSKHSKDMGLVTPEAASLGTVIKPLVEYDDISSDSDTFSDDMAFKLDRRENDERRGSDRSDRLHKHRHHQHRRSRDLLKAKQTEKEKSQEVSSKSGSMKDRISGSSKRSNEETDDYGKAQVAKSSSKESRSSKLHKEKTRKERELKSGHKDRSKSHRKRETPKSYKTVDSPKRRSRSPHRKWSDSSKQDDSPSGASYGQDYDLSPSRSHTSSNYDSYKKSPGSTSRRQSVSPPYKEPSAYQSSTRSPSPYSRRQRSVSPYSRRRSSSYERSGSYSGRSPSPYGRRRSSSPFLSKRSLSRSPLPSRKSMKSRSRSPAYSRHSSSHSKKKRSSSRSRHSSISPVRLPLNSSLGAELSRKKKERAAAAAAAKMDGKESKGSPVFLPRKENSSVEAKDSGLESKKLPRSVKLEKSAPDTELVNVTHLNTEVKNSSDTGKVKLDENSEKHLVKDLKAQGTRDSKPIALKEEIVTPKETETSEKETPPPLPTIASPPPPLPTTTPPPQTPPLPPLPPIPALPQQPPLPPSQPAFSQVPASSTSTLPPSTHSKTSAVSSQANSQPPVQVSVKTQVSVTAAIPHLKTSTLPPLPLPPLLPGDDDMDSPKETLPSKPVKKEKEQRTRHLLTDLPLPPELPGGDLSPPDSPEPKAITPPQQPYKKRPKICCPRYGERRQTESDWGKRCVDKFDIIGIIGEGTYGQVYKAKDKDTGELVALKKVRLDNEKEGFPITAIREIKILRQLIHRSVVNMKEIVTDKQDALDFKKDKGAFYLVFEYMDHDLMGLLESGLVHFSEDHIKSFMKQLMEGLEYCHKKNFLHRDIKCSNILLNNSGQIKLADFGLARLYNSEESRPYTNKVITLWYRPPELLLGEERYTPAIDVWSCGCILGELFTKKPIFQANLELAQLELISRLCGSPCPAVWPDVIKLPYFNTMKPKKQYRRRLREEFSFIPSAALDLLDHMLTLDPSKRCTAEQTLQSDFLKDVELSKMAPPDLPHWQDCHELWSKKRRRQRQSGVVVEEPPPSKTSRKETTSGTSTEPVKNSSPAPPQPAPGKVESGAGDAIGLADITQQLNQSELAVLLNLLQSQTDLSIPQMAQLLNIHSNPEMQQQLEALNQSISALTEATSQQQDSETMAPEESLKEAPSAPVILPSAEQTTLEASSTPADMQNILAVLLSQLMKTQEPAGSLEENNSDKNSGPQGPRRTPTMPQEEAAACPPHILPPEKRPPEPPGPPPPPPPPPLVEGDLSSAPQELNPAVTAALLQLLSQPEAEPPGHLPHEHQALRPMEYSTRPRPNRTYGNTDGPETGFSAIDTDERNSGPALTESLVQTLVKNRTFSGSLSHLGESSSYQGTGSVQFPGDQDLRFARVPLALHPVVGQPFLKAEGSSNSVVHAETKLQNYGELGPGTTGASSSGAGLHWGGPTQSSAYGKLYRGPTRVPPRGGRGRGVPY

[3] = target: T1, Cyclin-dependent kinase 12/13 (Homo sapiens) (UniProt Q14004+Q9NYV4); assay: Inhibition of CDK12/13 in human jurkat cells assessed as reduction in RNA polymerase 2 CTD phosphorylation at Ser2 residue at 0.5 uM measured after 6 hrs by immunoblotting analysis; assay type: cell-based
[4] = target: T1, Cyclin-dependent kinase 12/13 (Homo sapiens); assay: Inhibition of CDK12/13 in human jurkat cells assessed as reduction in RNA polymerase 2 CTD phosphorylation at Ser2 residue at 1 uM measured after 6 hrs by immunoblotting analysis; assay type: cell-based
[5] = Cmax in Swiss albino mouse at 3 mg/kg, iv measured upto 24 hrs by LC-MS/MS analysis; assay type: ADME, organism-based; parameters: route intravenous, dose 3 mg/kg, time <=24; conditions: in vivo
[6] = Cmax in Swiss albino mouse at 10 mg/kg, po measured upto 24 hrs by LC-MS/MS analysis; assay type: ADME, organism-based; parameters: route oral, dose 10 mg/kg, time <=24; conditions: in vivo
[7] = AUClast in Swiss albino mouse at 3 mg/kg, iv measured upto 24 hrs by LC-MS/MS analysis; assay type: ADME, organism-based; parameters: route intravenous, dose 3 mg/kg, time <=24; conditions: in vivo
[8] = AUClast in Swiss albino mouse at 10 mg/kg, po measured upto 24 hrs by LC-MS/MS analysis; assay type: ADME, organism-based; parameters: route oral, dose 10 mg/kg, time <=24; conditions: in vivo
[9] = Oral bioavailability in Swiss albino mouse at 10 mg/kg measured upto 24 hrs by LC-MS/MS analysis; assay type: ADME, organism-based; conditions: in vivo
Cyclin-K (Homo sapiens) = Cyclin-K (Homo sapiens) (UniProt O75909); assay: Binding affinity to CyclinK in CDK12/CyclinK complex (unknown origin) at 10-fold excess concentration incubated for 1 hr by LC-MS analysis
Sequence of Cyclin-K (Homo sapiens) (O75909 whole entry): as the sequence (O75909 whole entry, further chain) above

[10] = target: Cyclin-dependent kinase 12 (Homo sapiens) (UniProt Q9NYV4); assay: Covalent binding affinity to CDK12 in CDK12/CyclinK complex (unknown origin) assessed as covalent labeling of Cys1039 in gluc-protease digested CDK12 peptide 1025LASKMAPPDLPHWQDCHE1041 by CE-MS analysis
[11] = target: DNA-dependent protein kinase catalytic subunit (Homo sapiens, UniProt P78527); assay: Inhibition of ADP(ATP)-biotin probe binding to DNAPK in human Kelly cells at 1 uM incubated for 6 hrs by KiNativ profiling analysis; assay type: cell-based
[12] = target: Mitogen-activated protein kinase 8 (Homo sapiens) (UniProt P45983); assay: Inhibition of ADP(ATP)-biotin probe binding to JNK1 in human Kelly cells at 1 uM incubated for 6 hrs by KiNativ profiling analysis; assay type: cell-based
[13] = target: Mitogen-activated protein kinase 10 (Homo sapiens) (UniProt P53779); assay: Inhibition of ADP(ATP)-biotin probe binding to JNK3 in human Kelly cells at 1 uM incubated for 6 hrs by KiNativ profiling analysis; assay type: cell-based
[14] = target: Serine/threonine-protein kinase 10 (Homo sapiens) (UniProt O94804); assay: Inhibition of ADP(ATP)-biotin probe binding to LOK in human Kelly cells at 1 uM incubated for 6 hrs by KiNativ profiling analysis; assay type: cell-based
Sequence of Serine/threonine-protein kinase 10 (Homo sapiens) (O94804 whole entry, looked up): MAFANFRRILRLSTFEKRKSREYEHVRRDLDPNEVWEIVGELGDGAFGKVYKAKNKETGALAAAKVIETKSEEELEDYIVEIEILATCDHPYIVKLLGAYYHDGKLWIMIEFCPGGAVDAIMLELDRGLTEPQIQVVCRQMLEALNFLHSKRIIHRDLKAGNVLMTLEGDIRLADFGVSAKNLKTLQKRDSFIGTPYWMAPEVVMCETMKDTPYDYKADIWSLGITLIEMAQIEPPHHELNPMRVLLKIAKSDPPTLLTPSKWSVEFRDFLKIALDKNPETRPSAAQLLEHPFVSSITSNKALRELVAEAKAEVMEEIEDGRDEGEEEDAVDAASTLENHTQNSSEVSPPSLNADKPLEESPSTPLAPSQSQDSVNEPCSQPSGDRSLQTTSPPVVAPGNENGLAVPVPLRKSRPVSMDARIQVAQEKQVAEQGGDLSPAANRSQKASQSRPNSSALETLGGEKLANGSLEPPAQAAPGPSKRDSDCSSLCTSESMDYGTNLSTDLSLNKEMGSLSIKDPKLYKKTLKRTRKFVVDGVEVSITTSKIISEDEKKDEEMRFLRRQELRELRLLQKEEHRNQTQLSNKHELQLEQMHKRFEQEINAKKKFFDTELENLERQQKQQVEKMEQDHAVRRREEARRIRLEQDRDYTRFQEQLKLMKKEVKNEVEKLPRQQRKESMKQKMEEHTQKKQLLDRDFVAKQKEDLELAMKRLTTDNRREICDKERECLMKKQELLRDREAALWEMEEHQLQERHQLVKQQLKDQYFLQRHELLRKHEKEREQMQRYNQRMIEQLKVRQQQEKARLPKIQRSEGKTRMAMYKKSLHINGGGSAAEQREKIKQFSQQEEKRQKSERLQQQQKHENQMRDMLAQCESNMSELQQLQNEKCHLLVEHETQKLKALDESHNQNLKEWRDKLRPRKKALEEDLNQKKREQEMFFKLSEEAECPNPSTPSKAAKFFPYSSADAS

[15] = target: Cyclin-dependent kinase 7 (Homo sapiens) (UniProt P50613); assay: Inhibition of THZ1-biotin binding from CDK7 in human Jurkat cells at 500 nM incubated for 6 hrs by CyclinH antibody based competitive pull down assay; assay type: cell-based
Sequence of Cyclin-dependent kinase 7 (Homo sapiens) (P50613 whole entry): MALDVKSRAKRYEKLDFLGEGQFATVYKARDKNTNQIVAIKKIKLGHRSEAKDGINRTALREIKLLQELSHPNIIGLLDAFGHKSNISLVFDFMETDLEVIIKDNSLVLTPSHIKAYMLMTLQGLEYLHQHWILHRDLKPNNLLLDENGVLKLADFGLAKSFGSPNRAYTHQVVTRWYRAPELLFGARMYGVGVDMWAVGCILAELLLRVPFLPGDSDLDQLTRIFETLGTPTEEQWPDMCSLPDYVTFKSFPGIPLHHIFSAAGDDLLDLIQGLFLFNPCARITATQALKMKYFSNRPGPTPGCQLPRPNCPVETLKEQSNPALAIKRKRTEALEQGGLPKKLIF

[16] = target: Cyclin-dependent kinase 7 (Homo sapiens) (UniProt P50613); assay: Inhibition of THZ1-biotin binding from CDK7 in human Jurkat cells at 5 uM incubated for 6 hrs by CyclinH antibody based competitive pull down assay; assay type: cell-based
[17] = Downregulation of RNA polymerase 2 CTD phosphorylation at Ser5 residue in human Jurkat cells at 2.5 uM incubated for 6 hrs by immunoblotting analysis; assay type: functional
[18] = Downregulation of RNA polymerase 2 CTD phosphorylation at Ser5 residue in human Jurkat cells at 5 uM incubated for 6 hrs by immunoblotting analysis; assay type: functional
[19] = Downregulation of RNA polymerase 2 CTD phosphorylation at Ser7 residue in human Jurkat cells at 1 uM incubated for 6 hrs by immunoblotting analysis; assay type: functional
[20] = Downregulation of RNA polymerase 2 in human Jurkat cells at 1 uM measured after 6 hrs by immunoblotting analysis; assay type: functional
[21] = Antiproliferative activity against human Kelly cells harboring wild type CDK12 assessed as reduction in cell viability incubated for 72 hrs by CelTiter-Glo assay; assay type: functional, cell-based
[22] = Selectivity ratio of IC50 for human Kelly cells harboring CDK12 C1039F mutant to IC50 for human Kelly cells harboring wild type CDK12; assay type: functional
[23] = target: Ribosomal protein S6 kinase alpha-3 (Homo sapiens, UniProt P51812); assay: Inhibition of human RSK2 by Invitrogen ADAPTA or Z'LYTE biochemical kinase assay

CN(C)C/C=C/C(=O)Nc1ccc(O[C@@H]2CCC[C@@H](Nc3ncc(Cl)c(-c4c[nH]c5ccccc45)n3)C2)cc1
IC50 [1]: 283 nM
Activity [2]: Active
inhibition [3]: 45%
inhibition [4]: 78%
Cmax [5]: 1511 ng/mL
Cmax [6]: 272 ng/mL
AUClast [7]: 1832 ng·h/mL
AUClast [8]: 1043 ng·h/mL
F [9]: 17%
Activity (Cyclin-K (Homo sapiens)): inactive
Activity [10]: Active
inhibition [11]: 38.3%
inhibition [12]: 45.9%
inhibition [13]: 45.9%
inhibition [14]: 33.9%
inhibition [15]: inactive
inhibition [16]: Active
inhibition at 2.5 µM [17]: 47%
inhibition at 5 µM [18]: 47%
inhibition at 1 µM [19]: 41%
inhibition at 1 µM [20]: 13%
IC50 [21]: 42.2 nM
Ratio IC50 [22]: 5
IC50 [23]: 4500 nM
